In the supplement of paper PMC10307832:

What was measured:
Assay in all cases: relative viability (nuclei count vs DMSO), 5 days (fraction); higher = more cells survive
Metformin + OSI-027 = compound: CN(C)C(=N)NC(=N)N [Metformin] + COc1cccc2cc(-c3nc([C@H]4CC[C@H](C(=O)O)CC4)n4ncnc(N)c34)[nH]c12 [OSI-027] (partner 0.5 µM)
How it was run: (§1)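 Relative viability divides the nuclei count in treated wells by that in vehicle wells. Lung cancer cell lines were seeded in 1536-well plates, dosed by pin tool the next day, and fixed and stained after 5 days in one step with final 0.05% Triton X-100, 1% formaldehyde and 1 ug/ml Hoechst. Dosing was a single drug or a fixed anchor-drug dose plus five library-drug doses (not always all listed) in √10 steps, and values are medians of duplicate plates imaged at 4×.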

Metformin + Pictilisib = compound: CN(C)C(=N)NC(=N)N [Metformin] + CS(=O)(=O)N1CCN(Cc2cc3nc(-c4cccc5[nH]ncc45)nc(N4CCOCC4)c3s2)CC1 [Pictilisib] (partner 1 µM)
How it was run: as §1

Apatinib + Lapatinib = compound: N#CC1(c2ccc(NC(=O)c3cccnc3NCc3ccncc3)cc2)CCCC1 [Apatinib] + CS(=O)(=O)CCNCc1ccc(-c2ccc3ncnc(Nc4ccc(OCc5cccc(F)c5)c(Cl)c4)c3c2)o1 [Lapatinib] (partner 2 µM)
How it was run: as §1

Apatinib + Dasatinib = compound: N#CC1(c2ccc(NC(=O)c3cccnc3NCc3ccncc3)cc2)CCCC1 [Apatinib] + Cc1nc(Nc2ncc(C(=O)Nc3c(C)cccc3Cl)s2)cc(N2CCN(CCO)CC2)n1 [Dasatinib] (partner 0.075 µM)
How it was run: as §1

Cell Line | relative viability (Metformin + OSI-027; first compound 10 µM) | relative viability (Metformin + OSI-027; first compound 31.62 µM) | relative viability (Metformin + OSI-027; first compound 100 µM) | relative viability (Metformin + OSI-027; first compound 316.23 µM) | relative viability (Metformin + OSI-027; first compound 1000 µM) | relative viability (Metformin + Pictilisib; first compound 10 µM) | relative viability (Metformin + Pictilisib; first compound 31.62 µM) | relative viability (Metformin + Pictilisib; first compound 100 µM) | relative viability (Metformin + Pictilisib; first compound 316.23 µM) | relative viability (Metformin + Pictilisib; first compound 1000 µM) | relative viability (Apatinib + Lapatinib; first compound 0.08 µM) | relative viability (Apatinib + Lapatinib; first compound 0.253 µM) | relative viability (Apatinib + Lapatinib; first compound 0.8 µM) | relative viability (Apatinib + Lapatinib; first compound 2.53 µM) | relative viability (Apatinib + Lapatinib; first compound 8 µM) | relative viability (Apatinib + Dasatinib; first compound 0.08 µM) | relative viability (Apatinib + Dasatinib; first compound 0.253 µM) | relative viability (Apatinib + Dasatinib; first compound 0.8 µM) | relative viability (Apatinib + Dasatinib; first compound 2.53 µM) | relative viability (Apatinib + Dasatinib; first compound 8 µM)
NCI-H3122 | 0.672 | 0.851 | 0.574 | 0.419 | 0.339 | 0.488 | 0.588 | 0.459 | 0.437 | 0.5 | 1.03 | 1.02 | 1.01 | 0.989 | 1.01 | 0.858 | 0.666 | 0.836 | 0.845 | 0.538
NCI-H1651 | 0.904 | 1.02 | 1.03 | 0.954 | 1.1 | 0.762 | 0.887 | 0.674 | 0.883 | 0.876 | 0.914 | 0.909 | 0.709 | 0.698 | 0.76 | 0.386 | 0.492 | 0.387 | 0.251 | 0.365
SK-MES-1 | 0.446 | 0.551 | 0.532 | 0.432 | 0.454 | 0.424 | 0.34 | 0.362 | 0.378 | 0.414 | 0.473 | 0.473 | 0.512 | 0.414 | 0.502 | 0.368 | 0.323 | 0.38 | 0.348 | 0.307
NCI-H2085 | 0.649 | 0.54 | 0.721 | 0.718 | 0.703 | 0.408 | 0.492 | 0.472 | 0.439 | 0.545 | 0.726 | 0.683 | 0.873 | 0.619 | 0.768 | 0.229 | 0.229 | 0.231 | 0.243 | 0.215
SK-LU-1 | 0.32 | 0.389 | 0.354 | 0.318 | 0.299 | 0.543 | 0.554 | 0.674 | 0.685 | 0.719 | 0.939 | 1.16 | 1.03 | 0.715 | 0.709 | 0.182 | 0.207 | 0.184 | 0.167 | 0.175
COR-L23 | 0.644 | 0.68 | 0.571 | 0.605 | 0.782 | 0.756 | 0.886 | 0.754 | 0.707 | 0.759 | 0.919 | 1.16 | 1.05 | 0.792 | 0.722 | 0.469 | 0.598 | 0.518 | 0.45 | 0.405
COR-L 105 | 0.736 | 0.895 | 0.736 | 0.773 | 0.521 | 0.401 | 0.488 | 0.478 | 0.463 | 0.333 | 0.358 | 0.342 | 0.354 | 0.336 | 0.33 | 0.357 | 0.349 | 0.351 | 0.3 | 0.269
PC-3 [JPC-3] | 0.599 | 0.635 | 0.638 | 0.615 | 0.722 | 0.773 | 0.728 | 0.771 | 0.751 | 0.709 | 0.472 | 0.441 | 0.444 | 0.394 | 0.43 | 0.988 | 0.943 | 0.88 | 0.83 | 0.879
H3255 | 0.477 | 0.654 | 0.623 | 0.457 | 0.611 | 0.388 | 0.53 | 0.4 | 0.46 | 0.478 | 0.235 | 0.227 | 0.231 | 0.311 | 0.286 | 0.356 | 0.326 | 0.344 | 0.255 | 0.366
RERF-LC-KJ | 0.521 | 0.503 | 0.492 | 0.394 | 0.415 | 0.57 | 0.55 | 0.53 | 0.402 | 0.614 | 0.787 | 0.851 | 0.817 | 0.693 | 0.698 | 0.859 | 0.897 | 0.754 | 0.615 | 0.52
NCI-H2347 | 0.416 | 0.486 | – | 0.466 | 0.415 | 0.665 | 0.834 | 1.02 | 0.492 | 0.659 | 0.926 | 0.992 | 1.02 | 0.964 | 0.957 | 0.343 | 0.26 | 0.371 | 0.276 | 0.352
NCI-H520 | 0.306 | 0.35 | 0.322 | 0.28 | 0.348 | 0.302 | 0.31 | 0.28 | 0.258 | 0.361 | 0.981 | 1.12 | 0.856 | 0.767 | 0.659 | 0.228 | 0.205 | 0.176 | 0.203 | 0.203
NCI-H1395 | 0.74 | 0.899 | 0.669 | 0.693 | 0.75 | 0.64 | 0.728 | 0.653 | 0.81 | 0.593 | 0.848 | 1.31 | 1.17 | 0.855 | 0.901 | 0.412 | 0.399 | 0.367 | 0.349 | 0.378
LK-2 | 0.194 | 0.169 | 0.199 | 0.195 | 0.209 | 0.707 | 0.757 | 0.811 | 0.61 | 0.769 | 0.7 | 0.827 | 0.878 | 0.782 | 0.73 | 0.39 | 0.258 | 0.227 | 0.24 | 0.257
PC-14 | 0.648 | 0.929 | 0.657 | 0.607 | 0.574 | 0.577 | 0.811 | 0.654 | 0.734 | 0.776 | 0.384 | 0.29 | 0.283 | 0.277 | 0.23 | 0.284 | 0.238 | 0.203 | 0.208 | 0.178
NCI-H2023 | 0.421 | 0.558 | 0.379 | 0.397 | 0.378 | – | 0.269 | 0.262 | – | 0.252 | 0.751 | 0.945 | 0.911 | 0.74 | 0.737 | 0.566 | 0.639 | 0.536 | 0.392 | 0.358
